One block for each compound: values may come before it.
What was measured:
BRD4 = test system: BRD4; design: method as in earlier work; settings: VHL:PROTAC:BRD4; cited from earlier work
IRE1:VHL [1] = target: T1, IRE1:VHL (Homo sapiens, UniProt O75460+P40337); assay: co-IP of endogenous VHL with endogenous IRE1 from AMO1 cells; format: cell-based; design: co-IP of endogenous VHL with endogenous IRE1 from AMO1 cells; endogenous in cells; host or cells: AMO1; settings: G5758 in excess of G6374
Description: (§1) Cells were lysed in buffer containing 20 mM HEPES 7.2, 150 mM NaCl, and 1% Triton X-100, supplemented with fresh protease and phosphatase inhibitors (Invitrogen, #78440), cleared by centrifugation at 12,000 × g for 10 min, and analyzed by BCA protein assay (Thermo Fisher Scientific, #23227). Equal protein amounts were loaded, separated by SDS-PAGE, electrotransferred to nitrocellulose membranes using the iBLOT2 system (Invitrogen), and blocked in 5% nonfat milk solution for 60 min. Membranes were probed with primary antibodies at 1:1000 dilution in 5% milk at 4 °C overnight. Signal was detected using appropriate horseradish peroxidase (HRP)-conjugated secondary antibodies at 1:10,000 in 5% milk at room temperature for 1–2 h. Bands were visualized by the Azure 600 western blot imaging system (Azure Biosystems). For in vitro ubiquitination assays performed with Me-Ub, bands were visualized by the Odyssey CLx Imager (LI‑COR) after incubating the blots with the IRDye 800CW (LI-COR) secondary antibodies at 1:10,000 in Intercept Blocking Buffer (LI-COR) at room temperature for 1–2 h.
IRE1.LD antibodies were conjugated to agarose beads using the AminoLink® Plus Immobilization Kit (Thermo Fisher, #44894). […]

IRE1:VHL [2] = target: T1, IRE1:VHL; assay: NanoBRET IRE1:VHL interaction, WT IRE1, HEK293T cells; format: cell-based; design: N2731 (HaloTag-VHL); host or cells: HEK293T; settings: HEK293T, 1 µM G6374 and a titration of G5758
Description: 8 × 10^5 293T cells per well were seeded in 6-well plates (Costar, #3516) and incubated at 37 °C, 5% CO2 for 6 h. A mixture of 0.2 µg ERN1 (IRE1)-NanoLuc Fusion Vector (Promega, NV1321), 2 µg HaloTag-VHL Fusion Vector (Promega, N2731), 6 µl FuGENE HD Transfection Reagent (Promega, E2311), and 100 µL Opti-MEM I reduced serum medium (Gibco, #31985062) per well was incubated at room temperature for 20 min before adding to cells. For expression of IRE1 mutants, site-directed mutagenesis was performed using the ERN1-NanoLuc Fusion Vector as the DNA template, and the transfection mixture was prepared in the same way as WT IRE1. After 18 h, cells from 6-well plates were trypsinized, resuspended in Opti-MEM I reduced serum medium, and reseeded into 96-well plates (Costar, #3917), with or without the addition of HaloTag NanoBRET 618 Ligand (Promega, G9801). […] After 2 h of G6374 treatment, NanoBRET Nano-Glo Substrate (Promega, N1571) was added to cells. The 96-well plates were imaged by GloMax Discover Microplate Reader (Promega, GM3000) with the default “BRET: NanoBRET 618” protocol (Donor: 450 BP; Acceptor: 600 LP; Integration: 0.3 s). Data analysis was performed according to the user manual.

VCB (VHL:EloC:EloB) = VCB (VHL:EloC:EloB) (Homo sapiens, UniProt P40337); assay: Surface plasmon resonance, binary interaction with VCB; format: binding; settings: SPR, immobilised VCB, 20 °C, 1 to 1 kinetic model
Description: All SPR experiments in this paper were recorded on a Biacore S200 instrument; all protein captures and data collection were at 20 °C.
For binary interactions with G6374: a Xantec SAHC 200 M (streptavidin) chip was inserted into the instrument and primed into running buffer [50 mM HEPES (pH 7.4), 150 mM NaCl, 0.001% Tween 20, 0.2% PEG3350, 0.25 mM TCEP, and 2% DMSO]. Biotinylated human IRE1.KR protein was captured on FC2 to 2-4000 RU, biotinylated VHL in complex with Elongin B (VHL/EloB) was captured on FC4 to 1-2000 RU, data were collected, and all referenced to FC1. Affinity for G6374 was measured using a titration series, injected from low to high with an 8-point, 2-fold dilution dose response with a top concentration of 0.5 μM in both single cycle (single cycle kinetics (SCK)) and multi cycle kinetics (MCK) formats. For MCK experiments, an association time of 45 s and a dissociation time of 200 s with a flow rate of 50 μL/min. For SCK experiments, an association time of 45 s and a dissociation time of 2000 s with a flow rate of 50 μL/min were used. All data were analyzed using Insight software (Cytiva) using a 1 to 1 kinetic binding model.

AMO1 cells = assay: Incucyte cell confluency, AMO1 cells; format: cell-based
Description: (§2) For non-adherent AMO1, KMS27, and OPM2 cells, cells were plated at 5000 cells/well in ultra-low attachment (ULA) 96-well plates (Costar, #7007) and centrifuged at 600 × g for 5 min for spheroid formation. For adherent U2OS and Colo201 cells, 2000 cells/well were seeded in a clear flat-bottom 96-well plate (Costar, #3595). Treatments were added at the time of cell seeding, and cells were cultured in complete RPMI media to a final volume of 200 µL/well. Cultures were maintained at 37 °C throughout the duration of the experiment. Cell confluency was tracked using the Incucyte live-cell imaging system (Sartorius S3). Picture frames were captured every 4 h with a 4× objective, and cell confluency (%) from the total well area as a function of time was calculated using the Incucyte software (version 2023 A Rev2).

IRE1 = IRE1 (Homo sapiens, UniProt O75460); assay: Endogenous IRE1 protein levels in AMO1 or H929 cells (immunoblot); format: cell-based; design: Immunoblot (IB) analysis of endogenous IRE1 depletion in AMO1 cells; endogenous in cells; host or cells: AMO1, KMS27, H929; settings: 1 µM, 4 hr
Description: as §1

[3] = test system: IRE1-dependent or -independent cell lines; assay: Incucyte, IRE1-dependent or -independent cell lines together; format: cell-based
Description: as §2

OPM2 cells = assay: Incucyte cell confluency, OPM2 cells; format: cell-based; settings: OPM2 shIRE1 cells, titration
Description: as §2

KMS27 cells = assay: Incucyte cell confluency, KMS27 cells; format: cell-based; settings: KMS27 shIRE1 cells, titration
Description: as §2

WDR5 = test system: WDR5; design: method as in earlier work; settings: VHL:PROTAC:WDR5; cited from earlier work

SMILES: O=S(=O)(Cc1ccccc1)Nc1c(F)cc(Oc2ncccc2-c2ccnc(N[C@@H]3CNC[C@@H](F)C3)n2)c(F)c1F [G5758, reference compound]
competition with G6374-induced IRE1:VHL association and IRE1 depletion (co-IP) (IRE1:VHL [1]): attenuated the induced association between IRE1 and VHL as well as the depletion of IRE1
disruption of G6374-induced IRE1:VHL interaction (NanoBRET) (IRE1:VHL [2]): could disrupt G6374-induced interaction between IRE1 and VHL

ka (VCB (VHL:EloC:EloB)): 550000 M⁻¹ s⁻¹
kd (VCB (VHL:EloC:EloB)): 0.13 s⁻¹
SMILES: CC(=O)N[C@H](C(=O)N1C[C@H](O)C[C@H]1C(=O)NCc1ccc(-c2scnc2C)cc1)C(C)(C)C [VH032, reference compound]

SMILES: CC(=O)c1cnc2ccc(-c3cc(Cl)c(O)c(Cl)c3)nc2c1N[C@H]1CC[C@H](CN(C)C)CC1 [OTSSP167, reference compound]
proliferation of AMO1 cells (AMO1 cells; at 3X the IC50 of OTSSP167): did not

degradation of cellular IRE1 (IRE1): does not degrade cellular IRE1
SMILES: Cc1ncsc1-c1ccc(CNC(=O)[C@@H]2C[C@H](O)CN2C(=O)[C@@H](NC(=O)CCCCN2CCN(C3CCC(Nc4ncc5ccc(=O)n(C(C)C)c5n4)CC3)CC2)C(C)(C)C)cc1 (some centres unmarked) [G2642]
anti-proliferative activity [3]: no anti-proliferative activity
growth inhibition (cell confluency) (OPM2 cells): neither its epimer control G2642, nor the VHL ligand VH032, induced a concentration-dependent growth inhibition
growth inhibition (cell confluency) (AMO1 cells; AMO1 shIRE1 cells, titration): neither its epimer control G2642, nor the VHL ligand VH032, induced a concentration-dependent growth inhibition
growth inhibition (cell confluency) (KMS27 cells): neither its epimer control G2642, nor the VHL ligand VH032, induced a concentration-dependent growth inhibition

SMILES: Cc1ncsc1-c1ccc([C@H](C)NC(=O)[C@@H]2C[C@@H](O)CN2C(=O)[C@@H](NC(=O)CNC(=O)c2ccc(F)c(-c3ccc(N4C[C@@H](C)N(C)[C@@H](C)C4)c(NC(=O)c4c[nH]c(=O)cc4C(F)(F)F)c3)c2)C(C)(C)C)cc1 [MS67]
DC50 (WDR5): 3.7 nM
Dmax (WDR5): 94%
